One experiment addresses Wee1-like protein kinase (Homo sapiens, UniProt P30291). The experiment is described as follows: Dose Response Cell-based Assay for Inhibitors of Wee1 Degradation. [Related pubchem assays: 1410, 1321 ]. It counts as functional.
In a further experiment the target is Beta-galactosidase (Escherichia coli, UniProt Q8VNN2). The experiment in a line: Dose response counterscreen for EBI2 assay utilizing the enzyme, b-galactosidase. In kind it is functional. Background: Counterscreens check selectivity or assay interference.
Chain of Beta-galactosidase (Q8VNN2 whole entry): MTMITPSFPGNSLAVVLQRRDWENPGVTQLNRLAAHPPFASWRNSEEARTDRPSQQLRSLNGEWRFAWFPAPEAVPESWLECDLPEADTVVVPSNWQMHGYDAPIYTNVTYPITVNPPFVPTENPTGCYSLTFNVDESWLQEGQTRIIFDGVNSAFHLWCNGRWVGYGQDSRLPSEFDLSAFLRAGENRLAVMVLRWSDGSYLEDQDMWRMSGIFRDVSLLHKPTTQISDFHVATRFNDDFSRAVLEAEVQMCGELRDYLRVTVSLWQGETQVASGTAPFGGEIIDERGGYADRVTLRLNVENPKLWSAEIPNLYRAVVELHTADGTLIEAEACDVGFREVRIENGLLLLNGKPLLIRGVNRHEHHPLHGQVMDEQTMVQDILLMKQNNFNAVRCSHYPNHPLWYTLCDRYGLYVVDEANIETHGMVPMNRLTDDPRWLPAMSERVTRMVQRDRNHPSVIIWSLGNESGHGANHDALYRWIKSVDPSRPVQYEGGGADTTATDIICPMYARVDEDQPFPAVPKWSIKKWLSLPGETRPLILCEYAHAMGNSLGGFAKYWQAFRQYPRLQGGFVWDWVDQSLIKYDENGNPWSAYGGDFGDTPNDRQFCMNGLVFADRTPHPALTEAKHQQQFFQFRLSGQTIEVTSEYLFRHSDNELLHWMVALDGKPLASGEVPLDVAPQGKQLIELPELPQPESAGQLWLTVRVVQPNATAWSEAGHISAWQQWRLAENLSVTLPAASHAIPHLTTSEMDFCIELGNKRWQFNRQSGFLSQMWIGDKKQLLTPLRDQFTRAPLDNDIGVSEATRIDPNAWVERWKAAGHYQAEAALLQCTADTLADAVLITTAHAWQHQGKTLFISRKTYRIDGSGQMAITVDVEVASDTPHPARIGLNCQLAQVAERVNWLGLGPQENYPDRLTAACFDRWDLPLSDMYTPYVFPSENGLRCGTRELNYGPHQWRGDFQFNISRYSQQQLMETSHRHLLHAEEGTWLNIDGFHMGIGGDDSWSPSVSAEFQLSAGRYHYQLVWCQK
In experiment [1] the target is G2/mitotic-specific cyclin-B1 (Homo sapiens, UniProt P14635). The experiment is described as follows: Counterscreen assay for inhibitors of Wee1 degradation: dose response cell-based assay to identify inhibitors of cyclin B degradation. [Related pubchem assays: 1410, 1321 ]. In kind it is functional.
Chain of G2/mitotic-specific cyclin-B1 (P14635 whole entry): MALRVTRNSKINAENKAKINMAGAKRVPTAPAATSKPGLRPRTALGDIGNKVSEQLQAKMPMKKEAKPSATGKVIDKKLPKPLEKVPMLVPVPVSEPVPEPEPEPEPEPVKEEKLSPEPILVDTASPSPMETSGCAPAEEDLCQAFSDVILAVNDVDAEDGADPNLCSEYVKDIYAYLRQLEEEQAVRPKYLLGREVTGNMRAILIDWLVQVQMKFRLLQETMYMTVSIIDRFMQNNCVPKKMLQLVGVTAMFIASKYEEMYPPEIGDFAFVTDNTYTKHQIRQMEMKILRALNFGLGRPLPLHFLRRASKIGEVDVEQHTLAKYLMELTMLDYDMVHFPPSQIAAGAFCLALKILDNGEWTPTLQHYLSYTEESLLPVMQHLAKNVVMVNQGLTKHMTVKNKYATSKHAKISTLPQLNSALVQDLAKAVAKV
The target in experiment [2] is Intestinal-type alkaline phosphatase (Mus musculus, UniProt P24822). The experiment is described as follows: PubChem AID 488785. It counts as functional.
Chain of Intestinal-type alkaline phosphatase (Mus musculus, UniProt P24822) (P24822 whole entry): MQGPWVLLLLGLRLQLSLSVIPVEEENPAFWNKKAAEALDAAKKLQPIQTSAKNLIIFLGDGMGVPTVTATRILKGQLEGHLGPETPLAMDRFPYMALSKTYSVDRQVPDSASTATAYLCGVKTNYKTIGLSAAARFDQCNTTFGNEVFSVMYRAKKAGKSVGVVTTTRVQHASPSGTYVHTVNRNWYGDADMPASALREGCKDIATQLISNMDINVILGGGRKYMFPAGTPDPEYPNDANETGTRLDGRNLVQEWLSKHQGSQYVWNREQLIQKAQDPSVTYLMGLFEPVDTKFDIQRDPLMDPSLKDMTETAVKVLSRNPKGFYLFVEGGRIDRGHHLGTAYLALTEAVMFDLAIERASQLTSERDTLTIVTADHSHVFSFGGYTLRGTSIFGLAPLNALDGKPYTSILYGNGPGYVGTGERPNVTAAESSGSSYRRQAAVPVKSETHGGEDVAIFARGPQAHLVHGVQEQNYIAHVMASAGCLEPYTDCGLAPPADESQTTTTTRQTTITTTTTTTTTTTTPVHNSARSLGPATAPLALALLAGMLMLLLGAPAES
Experiment [3] deals with T1, Alkaline phosphatase, tissue-nonspecific isozyme (Homo sapiens, UniProt P05186).
T1 sequence (P05186 whole entry): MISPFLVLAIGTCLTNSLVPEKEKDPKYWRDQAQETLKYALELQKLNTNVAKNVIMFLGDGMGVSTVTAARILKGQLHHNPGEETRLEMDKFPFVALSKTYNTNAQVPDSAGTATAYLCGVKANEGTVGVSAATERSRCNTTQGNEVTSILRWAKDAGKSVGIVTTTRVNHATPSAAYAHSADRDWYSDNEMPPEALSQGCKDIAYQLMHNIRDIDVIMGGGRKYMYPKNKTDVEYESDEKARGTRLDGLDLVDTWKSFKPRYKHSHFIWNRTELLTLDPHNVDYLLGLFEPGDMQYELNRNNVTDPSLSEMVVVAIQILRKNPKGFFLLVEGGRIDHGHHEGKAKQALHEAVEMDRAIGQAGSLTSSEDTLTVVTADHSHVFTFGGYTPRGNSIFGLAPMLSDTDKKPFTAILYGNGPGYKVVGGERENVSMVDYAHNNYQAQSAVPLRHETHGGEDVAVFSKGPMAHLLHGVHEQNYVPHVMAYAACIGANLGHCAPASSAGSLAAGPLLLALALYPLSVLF
The experiment is described as follows: TNAP enzyme inhibition by screening hits, dose response, selectivity assay for mouse IAP inhibitor project, biochemical, human TNAP, uHTS hits (AID 488906). In kind it is functional.

Experiment [4] has as its target Intestinal-type alkaline phosphatase (Homo sapiens, UniProt P09923). The experiment is described as follows: activation of human intestinal alkaline phosphatase – biochemical, dose response (AID 488873). In kind it is functional.
The nature of experiment [5]: NIH3T3 cell viability loss – ATP luminescence, mouse fibroblasts, counter-screen, dose response (AID 2010).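 Note: cells exposed to compound for about 90 hours before reading.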 In kind it is functional, cell-based.
For experiment [6], the target named is T1, Alkaline phosphatase, tissue-nonspecific isozyme.
Experiment [7] is described as follows: Trypanosoma cruzi growth suppression in host cells – NIH3T3 host cells, beta-gal luminescence, confirmation (AID 2044).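 Note: intracellular parasites grown in NIH/3T3 mouse fibroblasts as host cells; luminescent beta-galactosidase reporter signal from transgenic T. cruzi replicating inside host cells; inhibitors lower the luminescence signal.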 In kind it is functional, cell-based.
A short description of experiment [8]: HPDE-C7 pancreatic duct cell viability loss – fluorescence, HTS (AID 430). In kind it is functional, cell-based. As to conditions: Homo sapiens.
In a further experiment the target is Protein Rev (Human immunodeficiency virus type 1 group M subtype B (isolate WMJ22)(HIV-1), UniProt P05866). The experiment is described as follows: inhibitors of Rev protein–RRE RNA complex – biochemical, protein-RNA interaction, dose response (AID 842). More on the design: species or system Human immunodeficiency virus 1.
Chain of Protein Rev (P05866 whole entry): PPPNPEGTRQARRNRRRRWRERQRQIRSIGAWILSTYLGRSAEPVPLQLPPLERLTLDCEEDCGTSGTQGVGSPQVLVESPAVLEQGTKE
Experiment [9] can be described thus: viability loss of HPDE-C7K cells – cell-based, fluorescence, HTS, primary screen (AID 431). In kind it is functional. The conditions noted are these: Homo sapiens.
The target in experiment [10] is T2, DNA repair protein RAD52 homolog (Homo sapiens, UniProt P43351).
T2 sequence (P43351 whole entry): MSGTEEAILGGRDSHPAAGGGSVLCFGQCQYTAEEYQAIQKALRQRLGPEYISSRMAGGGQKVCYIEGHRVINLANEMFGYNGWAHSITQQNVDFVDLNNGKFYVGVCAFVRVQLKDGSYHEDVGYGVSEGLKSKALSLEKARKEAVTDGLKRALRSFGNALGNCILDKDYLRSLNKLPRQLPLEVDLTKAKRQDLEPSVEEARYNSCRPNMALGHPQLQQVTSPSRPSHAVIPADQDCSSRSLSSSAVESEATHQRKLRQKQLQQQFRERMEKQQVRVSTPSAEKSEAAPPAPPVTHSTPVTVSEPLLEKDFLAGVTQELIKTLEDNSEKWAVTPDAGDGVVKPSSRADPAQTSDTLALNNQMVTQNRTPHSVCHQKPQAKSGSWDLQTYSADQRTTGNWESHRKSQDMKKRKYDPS
It counts as functional, biochemical.

A short description of experiment [11]: Counterscreen for IDE inhibitors: Luminescence-based cell-based high throughput dose response assay to identify compounds that are cytotoxic to HEK cells. [Related pubchem assays: 434962 (Primary screen (IDE inhibitors in singlicate)), 449730 (Counterscreen (Cytotoxicity in triplicate)), 435028 (Confirmation (IDE inhibitors in triplicate)) …. It counts as functional. The conditions noted are these: HEK293.

The target of another experiment is T3, Insulin-degrading enzyme (Homo sapiens, UniProt P14735).
T3 sequence (P14735 whole entry): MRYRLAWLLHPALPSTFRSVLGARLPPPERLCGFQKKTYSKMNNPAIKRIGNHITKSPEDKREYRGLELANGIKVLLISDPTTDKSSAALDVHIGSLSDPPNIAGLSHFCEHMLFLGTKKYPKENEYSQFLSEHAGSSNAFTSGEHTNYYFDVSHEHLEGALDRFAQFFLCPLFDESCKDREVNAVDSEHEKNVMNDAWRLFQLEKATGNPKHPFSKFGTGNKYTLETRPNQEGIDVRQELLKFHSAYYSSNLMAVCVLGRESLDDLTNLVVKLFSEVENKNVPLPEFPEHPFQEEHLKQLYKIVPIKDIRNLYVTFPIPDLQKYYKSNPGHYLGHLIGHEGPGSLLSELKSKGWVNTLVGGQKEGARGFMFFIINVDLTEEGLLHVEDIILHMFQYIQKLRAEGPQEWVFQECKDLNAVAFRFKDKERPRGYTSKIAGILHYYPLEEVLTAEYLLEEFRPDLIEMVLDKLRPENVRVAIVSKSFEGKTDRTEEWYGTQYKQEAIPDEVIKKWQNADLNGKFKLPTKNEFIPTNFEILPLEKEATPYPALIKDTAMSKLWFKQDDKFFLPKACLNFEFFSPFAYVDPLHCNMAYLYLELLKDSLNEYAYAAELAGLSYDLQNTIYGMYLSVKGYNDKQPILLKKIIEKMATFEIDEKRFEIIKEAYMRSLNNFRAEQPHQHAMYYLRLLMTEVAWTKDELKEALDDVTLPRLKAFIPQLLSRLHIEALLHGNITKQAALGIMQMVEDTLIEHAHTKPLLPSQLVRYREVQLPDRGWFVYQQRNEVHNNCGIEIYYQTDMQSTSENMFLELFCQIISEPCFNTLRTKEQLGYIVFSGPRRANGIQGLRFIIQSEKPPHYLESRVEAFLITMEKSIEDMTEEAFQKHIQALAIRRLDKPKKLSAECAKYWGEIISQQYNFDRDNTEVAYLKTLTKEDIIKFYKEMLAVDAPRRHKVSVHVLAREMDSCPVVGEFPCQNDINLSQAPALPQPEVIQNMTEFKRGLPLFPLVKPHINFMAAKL
The experiment is described as follows: Dose Response: Fluorescence polarization-based cell-based high throughput dose response assay for inhibitors of insulin-degrading enzyme (IDE). [Related pubchem assays: 434962 (Primary screen (IDE inhibitors in singlicate)), 449730 (Counterscreen (Cytotoxicity in triplicate)), 435028 (Confirmation (IDE inhibitors in triplicate)), 434984 (Summary …. It counts as functional. (Polarisation of emitted light reports the rotation of a fluorescent probe.)

The source made the active and inactive calls.

A word on the EC50: it is the concentration at which the effect is half-maximal. What is called IC50 is the concentration that inhibits the measured activity by half. For orientation: AC50 means the concentration at which the activity in the assay is half-maximal.

Chain of Wee1-like protein kinase (P30291 whole entry): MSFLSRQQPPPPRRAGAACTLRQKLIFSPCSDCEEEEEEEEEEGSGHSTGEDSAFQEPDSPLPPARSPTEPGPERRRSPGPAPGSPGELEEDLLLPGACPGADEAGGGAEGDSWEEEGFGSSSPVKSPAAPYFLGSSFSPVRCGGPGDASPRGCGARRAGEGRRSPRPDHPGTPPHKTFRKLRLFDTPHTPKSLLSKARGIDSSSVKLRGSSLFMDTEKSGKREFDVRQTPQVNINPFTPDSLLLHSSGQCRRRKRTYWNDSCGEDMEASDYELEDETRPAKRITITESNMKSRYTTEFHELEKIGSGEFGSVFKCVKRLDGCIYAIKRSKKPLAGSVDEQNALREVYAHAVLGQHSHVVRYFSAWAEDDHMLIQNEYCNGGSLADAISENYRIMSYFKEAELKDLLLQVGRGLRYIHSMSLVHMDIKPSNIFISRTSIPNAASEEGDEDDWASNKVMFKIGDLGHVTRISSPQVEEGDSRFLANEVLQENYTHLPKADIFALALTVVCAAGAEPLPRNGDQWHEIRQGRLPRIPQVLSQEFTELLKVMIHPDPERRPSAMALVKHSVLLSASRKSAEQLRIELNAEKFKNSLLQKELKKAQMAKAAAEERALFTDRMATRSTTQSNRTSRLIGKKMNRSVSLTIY
Chain of Intestinal-type alkaline phosphatase (Homo sapiens, UniProt P09923) (P09923 whole entry): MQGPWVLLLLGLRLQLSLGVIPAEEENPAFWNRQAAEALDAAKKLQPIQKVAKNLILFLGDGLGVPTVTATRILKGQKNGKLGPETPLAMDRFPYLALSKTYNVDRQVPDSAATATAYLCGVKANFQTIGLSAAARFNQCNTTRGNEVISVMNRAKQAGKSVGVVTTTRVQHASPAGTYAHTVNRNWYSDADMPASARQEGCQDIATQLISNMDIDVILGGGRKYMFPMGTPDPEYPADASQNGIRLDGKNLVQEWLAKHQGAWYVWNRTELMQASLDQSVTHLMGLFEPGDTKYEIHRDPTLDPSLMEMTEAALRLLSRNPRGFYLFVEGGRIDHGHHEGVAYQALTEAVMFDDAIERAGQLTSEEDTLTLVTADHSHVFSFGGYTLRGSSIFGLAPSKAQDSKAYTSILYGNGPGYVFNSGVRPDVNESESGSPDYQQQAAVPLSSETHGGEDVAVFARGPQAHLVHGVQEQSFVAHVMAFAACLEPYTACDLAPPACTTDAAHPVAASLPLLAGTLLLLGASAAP

Take `COC(=O)C1CCN(C(=O)/C=C/c2ccc(OC)cc2)CC1`: the EC50 (at Wee1-like protein kinase; in experiment [1]) was > 49.7 µM (not active) in each case. Moreover, the IC50 on Beta-galactosidase was > 80 µM (inactive).
Regarding `CC(C)c1ccc(NC(=O)NC2CCN(CC(=O)Nc3cccc4ccccc34)CC2)cc1`, the results for the IC50 in [2] and in experiment [3] were 10.8 µM (active) and 59.3 µM (active), respectively. The EC50 in experiment [4] was > 100 µM (inactive); in [5], > 60 µM (inconclusive); in experiment [6], > 100 µM (not active); in experiment [7] it was 1.88 µM (active).
For the compound `CN(C)CC(O)COc1ccc(-c2ccc(C#N)cc2)cc1` (stereo not given), the EC50 in [8] and in experiment [9] was > 20 µM (not active) in each case. Further, the IC50 against Protein Rev is > 79.4 µM (not active).
As to `CCOC(=O)c1c(C)n(Cc2ccccc2)c2ccc(OCC(O)CNC(C)(C)C)cc12` (stereo not given), the AC50 in experiment [10] was 22 µM (active). The 50% inhibitory concentration (IC50) is on record as 14.5 µM (not active) in experiment [11] and > 55.9 µM (not active) against Insulin-degrading enzyme.

The record behind these values is ChEMBL document CHEMBL1201862, “PubChem BioAssay data set” (2004).
